Reference: patent US10654834B2 (Venenum Biodesign, LLC, priority 2016, dated 2020)
Where two headings read alike, the source gives them in different places.

How the values were obtained:
Format in all cases: in vivo, mouse
[1] = Bile weight after a single oral administration in DIO mice; conditions: 30 mg/kg + sitagliptin 10 mg/kg p.o., 6, 12, 18, 24 h
Procedure: Bile Weight after a Single Oral Administration of the Compound
(§1) In this study, we evaluated if the observed GLP-1 elevation (induced by the compounds of the present invention) may be associated with gallbladder filling. We treated mice with Compound 268 and monitored the bile weight (a measure that indicated gallbladder filling) to determine if the compound retained more bile in the gallbladder as compared to the control mice (i.e., vehicle alone). A time course study was performed to measure weight of the bile aspirated from the gallbladder after oral administration of Compound 268 (30 mg/kg) in high fat diet induced obese (DIO) mice. In this study, GLP-1 levels were also measured at each time point (FIG. 9).
(§2) Approximately 12 week old DIO male mice (obtained from Taconic) were acclimated in the testing facility for over two weeks. The mice were provided a high fat diet [Research Diet D12492 (60% Fat kcal)] while in the testing facility. […] The blood samples were distributed as follows: 150-200 μL of blood were placed in an EDTA K^2+ tube containing 5 μL of 40 mg/mL aprotinin (Sigma A1153) and 1 μL of 10 mM sitagliptin (Sigma 58576) to be used for GLP-1 measurements; the remaining blood (≥250 μL) was placed in an EDTA K^2+ tube and plasma was processed for analytical chemistry and analyzed by LCMS/MS method as described in Example 81. […]

[2] = Comparison of PK in DIO mice and lean mice; conditions: for Cmax / AUC(0-t) / Tmax: mouse, plasma; for AUC(0-t): read-out: AUC (0→4 h)
Procedure: Comparison of PK in DIO Mice and Lean Mice
The PK characteristics of Compound 268 were examined in non-fasted lean C57BL/6N and DIO mice (Taconic). Compound 268 was orally administered to both groups at 10 mg/kg by oral gavage and plasma concentration of the compound was determined as described in Example 81.
In addition, PK parameters were determined for Compound 268 (i.e., Cmax, Tmax, and AUC) following oral administration in four groups of mice: (i) fasted lean mice; (ii) non-fasted lean mice; (iii) non-fasted DIO mice; and (iv) lean mice receiving ABT.
The ABT treatment confirms that the low Cmax value of Compound 268 is attributed to […].

[3] = system: GLP-1; experiment: Plasma GLP-1 time course after a single oral dose in DIO mice; conditions: 30 mg/kg + sitagliptin versus sitagliptin alone, 6-24 h
Procedure: as §1, §2

[4] = Plasma concentration of compound in lean C57BL/6N mice after OGTT; conditions: 6 h after 30 mg/kg + sitagliptin 3 mg/kg
Procedure: In these studies, the plasma concentration of the compounds of the present invention was measured in DIO mice as well as lean C57BL/6N mice.
In the second study (data represented in FIG. 11), plasma concentration levels were measured in lean mice after an OGTT experiment described in Example 84. The blood was collected via cardiac puncture 6 hours post compound dosing (and 2 hours after the 2 g/kg glucose bolus). The blood samples (?250 μL) were placed in an EDTA K^2+ tube and plasma was processed for analytical chemistry and analyzed by LCMS/MS method as described in Example 81. FIG. 11 depicts low levels of Compound 268 following OGTT in lean C57BL/6N mice, 6 hours after treatment with 30 mg/kg in combination with 3 mg/kg sitagliptin.

[5] = Body weight over 6 weeks of BID dosing in DIO mice; conditions: 30 mg/kg BID p.o.
Procedure: Monitoring of Weight Loss after Multiple Weeks of Dosing Compounds
Compounds of the present invention were dosed for multiple weeks and were evaluated for their ability to cause mice to lose weight.
(§3) In the next series of studies (Examples 93-99), Male DIO mice were received at 12 weeks of age (from Taconic), and were single-housed at the testing facility and acclimated for at least 2 weeks. The mice were provided a high fat diet [Research Diet D12492 (60% Fat kcal)] while in the testing facility. Before the study initiation, the animals were randomized into 5 experimental groups by body weight. The vehicle group contained only 0.5% carboxymethylcellulose (medium viscosity)+0.25% Tween-80. The second group contained 10 mg/kg of the DPP-IV inhibitor Sitagliptin while the third group contained 30 mg/kg Compound 268. The fourth group contained the combination of 10 mg/kg Sitagliptin and 30 mg/kg Compound 268. The fifth group was the positive control for weight loss, Rimonabant. All mice were dosed BID at approximately 6:00 am and again at approximately 4:00 pm. The positive control rimonabant was administered at a dose of 10 mg/kg in the afternoon and the morning dosing was vehicle (no compound).
Compounds of the present invention were evaluated for their ability to cause mice to lose weight. Mice were dosed compounds for 6 weeks and body weights were recorded twice a week.

[6] = Food intake over multiple weeks of dosing in DIO mice; conditions: 30 mg/kg BID p.o., 6 weeks
Text: as §3, with “compound). […]” for “compound).”
Compounds of the present invention were dosed for multiple weeks and were evaluated for their ability to cause mice to have a lower food intake. […]
The HFD (Research Diets, D12492, 60% fat kcal) was placed at the bottom of the cage on a singly-housed animal. […] Daily food intake is calculated by averaging over a 3 or 4 day period every week.

[7] = C57BL/6N, po, 10 mg/kg, Non-fasted DIO mice, oral (Table 58)
[8] = C57BL/6N, po, 10 mg/kg, Non-fasted Lean mice, oral (Table 58)
[9] = po, 10 mg/kg, Fasted Lean mice, oral (Table 58)
[10] = po, 10 mg/kg, lean mice receiving ABT (150 mg/kg), oral (Table 58)

In the case of `N#Cc1ccc(CCNC(=O)[C@@H]2CCN2c2cc(N3CCC(CCNC(=O)NCCC(=O)O)CC3)nc(C(F)(F)F)n2)cc1` [Compound 268, (S)-3-(3-(2-(1-(6-(2-((4-cyanophenethyl)carbamoyl)azetidin-1-yl)-2-(trifluoromethyl)pyrimidin-4-yl)piperidin-4-yl)ethyl)ureido)propanoic acid], the bile weight [1] is reported as “did not cause any significant increase in bile weight”, the Cmax ([2]; C57BL/6N, po, 10 mg/kg, DIO mice, Non-fasted PK, p.o. (Table 57)) is reported as 0.6 nM and the Cmax ([2]; C57BL/6N, po, 10 mg/kg, Lean mice, Non-fasted PK, p.o. (Table 57)) is reported as 2.1 nM. It also gave a Cmax [2, 7] of 0.57 nM, an AUC(0-t) [2, 7] of 0.76 ng·h/mL and a Cmax [2, 8] of 2.1 nM. For the same molecule, the AUC(0-t) [2, 8] was 2.9 ng·h/mL, the Tmax ([2]; C57BL/6N, po, DIO mice, Non-fasted PK, 10 mg/kg, p.o. (Table 57)) was 60 min and the Tmax ([2]; 10 mg/kg, Fasted Lean mice, oral (Table 58)) was 15 min. It also gave a Cmax [2, 9] of 12 nM, an AUC(0-t) [2, 9] of 18 ng·h/mL and a Cmax [2, 10] of 4.2 nM. The AUC(0-t) [2, 10] was 5.1 ng·h/mL, the Tmax ([2]; lean mice receiving ABT (150 mg/kg), oral (Table 58)) was 30 min and the “Cmax profile in fasted lean, non-fasted lean, non-fasted DIO mice” value ([2]; oral administration) was “low Cmax profile”. The “plasma GLP-1 levels” value [3] was “significant elevation of GLP-1 levels”, the “plasma concentration of compound” value [4] was “low levels” and the body weight change [5] was “modest weight loss”. The food intake [6] was “minor, but steady effect on food intake”.
